Measurements as given in publication PMC9682480, ““Vermellogens” and the Development of CB[8]-Based Supramolecular Switches Using pH-Responsive and Non-Toxic Viologen Analogues” (Journal of the American Chemical Society, 2022).
Each block holds one compound with its values, some of them ahead of it.

Legend:
HFF-1 cells = assay: Cell viability assay (WST-1) in human fibroblastic cell line; format: cell-based
Experimental: To conclude with this part of our work on the molecular responsiveness of the “vermellogens,” we decided to substantiate whether the bis-pyridinium core in the compounds would have or not a viologen-like reversible redox behavior. Thus, cyclic voltamograms were recorded for RaH·2Cl (2 mM) in buffered aqueous solutions at pH = 2 (0.05 M H3PO4/NaH2PO4), 7 (0.05 M NaH2PO4/Na2HPO4), and 12 (0.05 M Na2HPO4/Na3PO4). Those shown both the acidic (RaH^2+) and basic (Ra^+) forms of the “red thread” owning non-reversible redox peaks (Figure 1b).
Fibroblast cells (HFF-1; ATTC® SCRC-1041TM) were maintained in Dulbecco’s modified eagle’s medium (DMEM) supplemented with 10% FBS and 1% P/S and kept at 37 °C in a humidified atmosphere containing 5% CO2 until their use. HFF-1 cells were seeded in 96 well-plates at an initial density of 10^4 cells/well and allowed to attach for 24 h at 37 °C. The following day, culture medium was removed, replenished by fresh medium (90 µl) and cells were exposed to different concentration of R aH·2Cl and MV (10 µl; final concentrations 0.01, 0.05, 0.1, 0.5 and 1 mM). Control conditions included cells cultured in culture medium, but in absence of compound. Cells were further incubated for 24 h at 37°C and cell viability was monitored using the tetrazolium salt (WST-1) method.6 Absorbance at 450 nm was measured using a Synergy HTX Plate Reader (Biotek, Winooski, VT, USA) and the percent of cell viability (%) was calculated as follows:
Viability (%) = […]
Where Asample and Anegative control depict those absorbance values measured at 450 nm in presence and in absence of compound, respectively. All conditions were tested by triplicate in two independent experiments. Data were expressed as mean ± standard deviation (SD). Statistical analysis was performed by two-ways and one-way ANOVA with Tukey’s LSD post hoc test using IBM SPSS Statistics version 23. A p ≤ 0.05 was considered statistically significant.
Figure S 138: Compounds tested in WST-1 assay for cell viability.
6 Carballo-Pedrares, N.; Kattar, A.; Concheiro, A.; Alvarez-Lorenzo, C.; Rey-Rico, Niosomes-based gene delivery systems for effective transfection of human mesenchymal stem cells. A. Matter. Sci. Eng. 2021, 18, 112307.

[1] = Halide recognition in acetonitrile (iodide); format: binding; conditions: UV–vis titrations and 1H-NMR
Description: (§1) Finally, diffraction-grade single crystals for RaH·2Cl could be obtained, with the solid-state structure showing hydrogen bonding between the hydrazone moiety with a chloride counterion and a crystallization water (Figure 1a).[34] Moved by this observation, and other reported evidence regarding the anion binding abilities of this type of hydrazone moieties,[30],[35] we decided to study the ability of the “red thread” RaH^2+ to recognize halide anions in acetonitrile by UV–vis titrations and ^1H-NMR. […] Conversely, the addition of increasing amounts of TBACl/Br to 33–20 μM solutions of RaH·2PF6, led to the absorption bands associated with the free form of RaH^2+ at λmax = 370 nm, decreasing in favor of new bands with a slight shift to λmax = 378 and 370 nm, tentatively assigned to RaH^2+···Cl/Br complexes and with the data fitting appropriately to 1:1 association processes (Ka = (7.03 ± 0.14)·10^4 M^–1 for Cl^–, (1.41 ± 0.07)·10^4 M^–1 for Br^–). In both cases, the results agreed with those expected for the recognition through hydrogen bonding between the hydrazone group and the anions, resulting in a bathochromic shift of the absorption band.[30],[35] […]
(§2) NMR titrations could not be performed due to the precipitation of R aH2+ upon 2 eqv. of the corresponding salt. Spectra were recorded at 0, 0.5, 1, 2 and 4 eq. of the corresponding salt to follow the chemical shift of the […]

[2] = Halide recognition by UV–vis titration in acetonitrile (TBACl); format: binding
Description: (§3) Finally, diffraction-grade single crystals for RaH·2Cl could be obtained, with the solid-state structure showing hydrogen bonding between the hydrazone moiety with a chloride counterion and a crystallization water (Figure 1a).[34] Moved by this observation, and other reported evidence regarding the anion binding abilities of this type of hydrazone moieties,[30],[35] we decided to study the ability of the “red thread” RaH^2+ to recognize halide anions in acetonitrile by UV–vis titrations and ^1H-NMR. […] Conversely, the addition of increasing amounts of TBACl/Br to 33–20 μM solutions of RaH·2PF6, led to the absorption bands associated with the free form of RaH^2+ at λmax = 370 nm, decreasing in favor of new bands with a slight shift to λmax = 378 and 370 nm, tentatively assigned to RaH^2+···Cl/Br complexes and with the data fitting appropriately to 1:1 association processes (Ka = (7.03 ± 0.14)·10^4 M^–1 for Cl^–, (1.41 ± 0.07)·10^4 M^–1 for Br^–). […]
as §2
(§4) Concentration (μM) Absorbance Residual […]

[3] = Fluoride interaction by UV–vis titration in acetonitrile (TBAF); format: binding; conditions: 1 μM, 2:1 process
Description: as §1, §2

[4] = Halide recognition by UV–vis titration in acetonitrile (TBABr); format: binding
Description: as §3, §2, §4

[5] = pKa determination by UV–vis acid–base titrations in water; format: physicochemical; conditions: for pKa value (linear fitting of pH against log absorbance ratio): 20 μM chloride salt in NaH2PO4/Na2HPO4, KHCO3/K2CO3 and Na2HPO4/Na2PO4 buffers, supplement; for pKa: aqueous phosphate and carbonate buffers, RH^2+/R^+ or MH^+/M, UV–vis titrations in water, chloride salts
Description: Next, in our study of the stimuli-responsiveness of the “vermellogens”, we proceeded to verify the new analogues as pH-based molecular switches, by conducting UV–vis acid–base titrations in water for the compounds Ra–eH·2Cl. All the new “vermellogens” show similar π–π* main absorption bands centered at λ^1max = 366–377 nm at neutral or slightly acidic pH. An increase in the basicity of the solution produces the decrease of the aforementioned bands and the concomitant rise of new absorptions associated with the deprotonated compounds and centered at λ^2max = 460–475 nm. The pKa values obtained by the aforementioned UV–vis titrations for Ra–eH·2Cl are quite similar, showing no dependence on the substituent on the pyridinium N^+ atoms within their structures (Table 1 and Figures S115–S125). Furthermore, to evaluate the effect of the two different pyridinium heterocycles on the observed anomalous pKa’s, two analogues were prepared (Ma–bH·Cl), in which one of these moieties was substituted by a neutral phenyl ring.
4.2. pK a determination for Rb by UV-Vis
(§5) Figure S 116: UV-Vis spectra for the titration of R b·2Cl at 20 μM in NaH 2PO4/Na2HPO4, KHCO3/K2CO3 and Na2HPO4/Na2PO4 buffers. On the top right: Absorption of R b+ at λ = 474 nm plotted against pH. pH V (mL) of V (mL) of V (mL) of V (mL) of V (mL) of ABS log[A474-(measured) solution A solution B solution C solution D solution E (474 ARb2+)/(ARb1+- […]
(§6) Table S 4: Experimental data obtained for the UV-Vis titration of R b·2Cl at 20 μM in NaH2PO4/Na2HPO4, KHCO3/K2CO3 and Na2HPO4/Na2PO4 buffer. Solution A: 20 μM of R b·2Cl and 0.05 M of NaH2PO4. Solution B: 20 μM of R b·2Cl and 0.05 M of NaHPO4. Solution C: 20 μM of R b·2Cl and 0.05 M of Na2PO4. Solution D: 20 μM of R b·2Cl and 0.05 M of KHCO3. Solution E: 20 μM of R b·2Cl and 0.05 M of […]
4.4. pK a determination for Rc by UV-Vis
as §5, with “119:” for “116:”, “c·2Cl” for “b·2Cl”, “c+” for “b+”, “466” for “474”, “log[A466-(measured)” for “log[A474-(measured)”, “(466 ARc2+)/(ARc+-” for “(474 ARb2+)/(ARb1+-”
Table S 5: Experimental data obtained for the UV-Vis titration of R c·2Cl at 20 μM in NaH2PO4/Na2HPO4, KHCO3/K2CO3 and Na2HPO4/Na2PO4 buffer. Solution A: 20 μM of Rc·2Cl and 0.05 M of NaH2PO4. Solution B: 20 μM of R c·2Cl and 0.05 M of NaHPO4. Solution C: 20 μM of R c·2Cl and 0.05 M of Na2PO4. Solution D: 20 μM of R c·2Cl and 0.05 M of KHCO3. Solution E: 20 μM of R c·2Cl and 0.05 M of […]
4.6. pK a determination for Rd by UV-Vis
as §5, with “122:” for “116:”, “d·2Cl” for “b·2Cl”, “d+” for “b+”, “475” for “474”, “log[A475-(measured)” for “log[A474-(measured)”, “(475 ARd2+)/(ARd1+-” for “(474 ARb2+)/(ARb1+-”
as §6, with “6:” for “4:”, “d·2Cl” for “b·2Cl”
4.8. pK a determination for Re by UV-Vis
as §5, with “125:” for “116:”, “e·2Cl” for “b·2Cl”, “e+” for “b+”, “460” for “474”, “log[A460-(measured)” for “log[A474-(measured)”, “(460 ARe2+)/(ARe1+-” for “(474 ARb2+)/(ARb1+-”
Table S 7: Experimental data obtained for the UV-Vis titration of R e·2Cl at 20 μM in NaH2PO4/Na2HPO4, KHCO3/K2CO3 and Na2HPO4/Na2PO4 buffer. Solution A: 20 μM of R e·2Cl and 0.05 M of […]

Structure (SMILES): C[n+]1ccc(-c2cc[n+](C)cc2)cc1 [MV^2+, paraquat, reference compound]
- decrease of cell survival percentages relative to RaH^2+ (HFF-1 cells; HFF-1, from 0.5 mM): ~3 fold
- cell survival (HFF-1 cells; HFF-1, from 0.5 mM concentration, 24 h, WST-1): severe decrease in cell survival

Structure (SMILES): C[n+]1ccc(/C=N/Nc2cc[n+](C)cc2)cc1 [RaH·2PF6]
- interaction with I^– [1]: no interaction
- Ka (1:1 association with Cl^–) [2]: (7.03 ± 0.14)·10^4 M^–1
- Ka1 (first F^– equivalent, interaction with hydrazone group) [3]: (4.49 ± 0.77)·10^7 M^–1
- Ka2 (deprotonation of the NH assisted by a second fluoride) [3]: (5.43 ± 0.59)·10^7 M^–1
- Ka (1:1 association with Br^–) [4]: (1.41 ± 0.07)·10^4 M^–1

Structure (SMILES): C(=N\Nc1cc[n+](Cc2ccccc2)cc1)/c1cc[n+](Cc2ccccc2)cc1 [RbH·2X]
- pKa value (linear fitting of pH against log absorbance ratio) [5]: 8.6
- pKa [5]: 8.6

Structure (SMILES): C/C(=N\Nc1cc[n+](C)cc1)c1cc[n+](C)cc1 [ReH·2X]
- pKa [5]: 9.6

Second part, the compound after the results:

- pKa value (linear fitting of pH against log absorbance ratio) [5]: 8.6
- pKa [5]: 8.7
Structure (SMILES): C[n+]1ccc(N/N=C/c2cc[n+](Cc3ccccc3)cc2)cc1 [RcH·2X]

- pKa [5]: 8.6
Structure (SMILES): C[n+]1ccc(/C=N/Nc2cc[n+](Cc3ccccc3)cc2)cc1 [RdH·2X]
